# Experiments:
# G9a HMTase = target: T1, G9a HMTase (Homo sapiens, UniProt Q96KQ7); details: cited from earlier work
# T1 sequence (Q96KQ7 1-1210): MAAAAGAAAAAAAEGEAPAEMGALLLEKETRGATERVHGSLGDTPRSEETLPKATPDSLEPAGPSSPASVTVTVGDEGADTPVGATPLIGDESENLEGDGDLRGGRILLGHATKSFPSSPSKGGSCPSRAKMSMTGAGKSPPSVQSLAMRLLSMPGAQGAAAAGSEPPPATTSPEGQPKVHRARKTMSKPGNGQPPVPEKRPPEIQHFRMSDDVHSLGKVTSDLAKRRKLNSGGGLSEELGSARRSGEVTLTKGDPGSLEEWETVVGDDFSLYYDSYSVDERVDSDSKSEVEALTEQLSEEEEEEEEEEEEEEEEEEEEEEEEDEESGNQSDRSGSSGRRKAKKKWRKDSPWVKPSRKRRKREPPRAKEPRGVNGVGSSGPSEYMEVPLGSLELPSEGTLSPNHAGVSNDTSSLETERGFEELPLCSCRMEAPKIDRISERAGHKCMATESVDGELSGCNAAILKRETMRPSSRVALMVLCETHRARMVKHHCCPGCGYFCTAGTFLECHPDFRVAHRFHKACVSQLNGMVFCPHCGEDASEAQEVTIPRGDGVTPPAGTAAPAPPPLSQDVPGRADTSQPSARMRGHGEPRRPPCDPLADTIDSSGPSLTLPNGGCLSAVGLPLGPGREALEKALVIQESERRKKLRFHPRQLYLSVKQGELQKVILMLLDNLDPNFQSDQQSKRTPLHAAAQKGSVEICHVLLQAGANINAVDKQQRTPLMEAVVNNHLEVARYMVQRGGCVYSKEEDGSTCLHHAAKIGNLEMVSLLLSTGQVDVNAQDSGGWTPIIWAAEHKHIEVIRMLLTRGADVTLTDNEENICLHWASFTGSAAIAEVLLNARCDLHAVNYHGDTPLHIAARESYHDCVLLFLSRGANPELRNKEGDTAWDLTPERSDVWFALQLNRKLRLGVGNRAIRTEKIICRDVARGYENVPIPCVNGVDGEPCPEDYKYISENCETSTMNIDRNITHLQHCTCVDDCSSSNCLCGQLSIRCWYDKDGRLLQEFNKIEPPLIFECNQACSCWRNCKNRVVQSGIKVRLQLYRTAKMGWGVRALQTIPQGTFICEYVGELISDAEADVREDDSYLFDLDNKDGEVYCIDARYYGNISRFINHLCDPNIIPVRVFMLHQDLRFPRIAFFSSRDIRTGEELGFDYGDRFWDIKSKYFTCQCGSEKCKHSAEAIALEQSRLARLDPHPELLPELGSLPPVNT
# histone deacetylase = details: cited from earlier work
# [1] = test system: 2nd KSO cells (secondary mouse embryonic fibroblasts); assay: iPS cell colony formation from 2nd KSO secondary MEFs after siRNA transfection; format: cell-based; details: siRNA 50 nM
# From the text: Applicants next sought to determine the effect of inhibiting H3K9 methyltransferases on generation of iPS cells. For some experiments, Applicants used “secondary” mouse embryonic fibroblasts (MEFs) that express murine reprogramming factors Klf4, Sox2, and Oct4 under the control of a doxycycline (“dox”)-inducible promoter. These cells, which are referred to as “2nd KSO” cells for short, reprogram to form iPS cells at a low frequency upon treatment with doxycycline, as described in the literature. The cells contained an Oct4-neo transgene, thereby allowing use of G418 to select for cells that were reprogrammed to pluripotency (as evidenced by expression from the Oct4 promoter).
# Applicants plated 2nd KSO cells into individual wells of 6-well dishes (100,000 cells per well) in mES cell medium (3 ml) on day 0. On day 1, cells in individual wells were transfected with siRNA (Ambion) designed to inhibit expression of a gene encoding one of the following H3K9 methyltransferases: Ehmt1, Ehmt2, Suv39h1, Suv39h2, and Riz1. Two different siRNAs targeted to each of these genes were used (each well received a single siRNA sequence). […] Accordingly, results obtained using this siRNA must be disregarded. […]
# Cells were treated with dox to induce expression of the reprogramming factors. […] Colonies were counted on day 20.
molecule,measurement,setting,value
COc1cc2nc(N3CCCN(C)CC3)nc(NC3CCN(Cc4ccccc4)CC3)c2cc1OC [BIX-01294],competition with cofactor S-adenosyl-methionine,G9a HMTase,does not compete with the cofactor S-adenosyl-methionine
same,selective inhibition of HMTase and generation of H3K9me2,G9a HMTase; in vitro,selectively impairs the G9a HMTase and the generation of H3K9me2 in vitro
"CC(/C=C/C(=O)NO)=C\[C@@H](C)C(=O)c1ccc(N(C)C)cc1 [Trichostatin A, [R-(E,E)]-7-[4-(Dimethylamino)phenyl]-N-hydroxy-4,6-dimethyl-7-oxo-2,4-heptadienamide]",concentration inhibiting histone deacetylase,histone deacetylase,nanomolar concentrations
"siRNA #2 against SetDB1: siRNA (Ambion) vs ESET/SetDB1; sense GGACGAUGCAGGAGAUAGAtt, antisense UCUAUCUCCUGCAUCGUCCga (sense GGACGAUGCAGGAGAUAGATT; antisense UCUAUCUCCUGCAUCGUCCGA; chemistry not given here)",number of iPS cell colonies / reprogramming efficiency,"[1]; dox, G418 from day 14, colonies counted on day 20",most striking increase in reprogramming efficiency
"s82302: siRNA (Ambion) vs suv39h2; sense GUGUCGAUGUGGACCUGAAtt, antisense UUCAGGUCCACAUCGACACct (sense GUGUCGAUGUGGACCUGAATT; antisense UUCAGGUCCACAUCGACACCT; chemistry not given here)",cell growth,[1]; 2nd KSO cells,inhibited cell growth
